We go through two compounds from patent US20080057529A1, “Method for Identifying Histone Deacetylase Inhibitors” (priority 2003, published 2008).

Where two headings read alike, the source gives them in different places.

One data set has as its system p21 minimal promoter. Briefly: Fluorometric β-lactamase activity assay in stable HeLa clone 1.17 (p21m-BLA). In kind it is cell-based, human. To be noted: for EC50: read-out: p21m-Bla EC50. The protocol: All clones were screened for the presence of stably and functional integrated copies of the p21m-BLA reporter gene transcription cassette by performing a fluorometric β-lactamase activity assay after treatment with the HDAC inhibitor Apicidin at a concentration of 1 μM (saturating dose representing 100% of Bla gene activation, i.e., 100% of HDAC inhibition). A 100 μL aliquot of cells for each stable transformant in complete DMEM was plated into a well of a 96 well plate at about 36,000 cells per well for treatment with 1 μM Apicidin (saturating dose) and a 100 μL aliquot of cells was plated into a well of a 96 well plate at 24,000 cells per well for treatment with DMSO (vehicle control). […] After 4 hours, 25 μL of complete DMEM containing Apicidin at 5× final concentration or DMSO (5%) was added to each of the wells. The cells were then grown at 37° C., 5% CO2 for about 12 to 16 hours. Afterwards, the medium was removed and 100 μL of DMEM without serum and 25 μL of FRET labeled CCF2-AM Bla substrate diluted in the appropriate buffer according to the manufacturer recommendations were each added to the cells to give a final concentration of 1 μM CCF2-AM.

The subject of data set [1] is HeLa cells. Briefly: Cell death in transiently transfected HeLa cells. The data set is classed as cell-based, human. To be noted: for Cell-death: after 6 hours, TSA 300 nM, Apicidin 1 μM. The procedure: (§1) The p21m-BLA reporter plasmid was tested in transient transfection experiments of HeLa cells to evaluate the responsiveness of the minimal p21 promoter and the Bla reporter system to known HDAC inhibitors. In the first two transfection experiments, HeLa cells were transfected with 1 or 2 μg of Bla reporter plasmid containing either p21 minimal promoter (p21m-BLA) or CMV promoter (CMV-BLA) and 0.1 μg of pCMV-Luc or pRSV-Luc control plasmids. Different DNA-FUGENE transfection reagent ratios were tested (FUGENE is available from Roche Applied Science, Indianapolis, Ind.). […] Data are summarized below in Tables 1 and 2.
The percentage of β-lactamase-positive cells increased with time independent of the presence of HDAC inhibitors and was constantly higher with p21m-BLA than with pCMV-BLA.

The next data set relates to clone 1.17 cells. Kind of data set: Growth inhibition, CYTOSTAR 14C-thymidine uptake. In kind it is cell-based. To be noted: Homo sapiens, 48 h, read-out: ^14C-thymidine EC50. The protocol: Cells were seeded in a CYTOSTAR-T plate at about 7000 to 10000 cells per well in 100 μL of complete DMEM and incubated 4 hours at 37° C., 5% CO2. Next, 25 μL per well of HDAC inhibitor or DMSO (vehicle control) 5× solutions in complete DMEM was added to the wells along with 5 μL per well of ^14C-thymidine diluted 1:3 in H2O (1.65 μL of thymidine per well, 55 mCi/mmol; 225 μCi/mg; 50 μCi/mL (10 μM final concentration) and incubated at 37° C., 5% CO2. Incorporation of ^14C-thymidine was monitored after 24, 48, and 72 hours by reading the plate in a Packard Instruments TOP-COUNT (CYTOSTAR ^14C method).

The next data set has as its system CMV promoter. Briefly: Luc activity of co-transfected pCMV-Luc control plasmid in HeLa cells. The data set is classed as cell-based, human. To be noted: 400 nM, 12 hours. The protocol: as §1
Data set [2] has as its system HeLa cells. To be noted: saturating amounts, after 48 hours; cited from earlier work.
Another data set has as its system RSV promoter. Kind of data set: Luc activity of co-transfected pRSV-Luc control plasmid in HeLa cells. To be noted: Table 2, 400 nM, 12 hours. In kind it is cell-based, human. The protocol:
as §1

The term EC50 denotes the midpoint of the concentration-response curve. Take `CCC(=O)CCCCC[C@@H]1NC(=O)[C@H]2CCCCN2C(=O)[C@H]([C@@H](C)CC)NC(=O)[C@H](Cc2cn(OC)c3ccccc23)NC1=O` [Apicidin]: the EC50 with p21 minimal promoter (Homo sapiens, HeLa, 13 h) was 170 nM; in the data set with clone 1.17 cells it was 410 nM. The “induction over DMSO (slope analysis of β-lactamase activity)” value in the data set on p21 minimal promoter (clone 1.17, saturating amounts of Apicidin (1 μM)) was around 200 fold. In the data set with HeLa cells [1] (transfected HeLa cells), the Cell-death result is “not visible”.

`CC(/C=C/C(=O)NO)=C\[C@@H](C)C(=O)c1ccc(N(C)C)cc1` [TSA, Trichostatin A]: in the data set with p21 minimal promoter (clone 1.17, 600 nM for 13 hr, then 7 days in culture, DMSO-treated samples), the “reversion of Bla induction after FACS sorting” value was “Complete reversion”. Further, in the data set with p21 minimal promoter (clone 1.17, 300 or 600 nM for 13 hours, 48 hours after removal), the “reversibility of induction of BlaM transcription” value is “complete shut down of β-lactamase activity”. Besides, on p21 minimal promoter (clone 1.17, about 13 hours treatment, means of 3 to 4 independent experiments), the EC50 was determined as 90 nM. The RLU/mg with CMV promoter (Table 1, 1 μg CMV-BLA + 3 μL F, control plasmid not given) was 8986 RLU/mg; in the data set with CMV promoter (Table 1, 1 μg p21m-BLA + 3 μL F, control plasmid pCMV-Luc or pRSV-Luc, not specified), 52035 RLU/mg; with CMV promoter (Table 1, 1 μg p21m-BLA + 5 μL F, control plasmid not given), 29022.4 RLU/mg; in the data set on CMV promoter (Table 2, 2 μg CMV-BLA + 6 μL F + CMV-luc), 13085.6 RLU/mg; in the data set on CMV promoter (Table 2, 2 μg p21BLA + 6 μL F + CMV-luc), 105942 RLU/mg; with RSV promoter (1 μg CMV-BLA + 3 μL F + RSV-luc), 7964.46 RLU/mg. The RLU/mg is 24437.8 RLU/mg in the data set with RSV promoter (1 μg p21m-BLA + 3 μL F + RSV-luc), 4972 RLU/mg in the data set with RSV promoter (2 μg CMV-BLA + 6 μL F + RSV-luc) and 29989.4 RLU/mg in the data set with RSV promoter (2 μg p21m-BLA + 6 μL F + RSV-luc). Further, the “cells dead after treatment” value in the data set on HeLa cells [1] (400 nM, 12 hours induction, transfected HeLa cells, both experiments) was “approximately 50%”. For the same compound, the “cell death at longer incubation times, compared with Apicidin” value in the data set with HeLa cells [1] (12 and 24 hours, TSA 300 nM vs Apicidin 1 μM) is on record as “higher fraction of cells died”. Besides, in the data set on HeLa cells [1] (transfected HeLa cells), the Cell-death result is reported as “not visible”. Moreover, the “remission from cell cycle arrest” value in the data set with HeLa cells [2] is reported as “complete remission from cell cycle arrest”.
